Measurements: patent publication US20230017045A1, “PYRIDINE AND PYRIMIDINE CARBOXYLATE HERBICIDES AND METHODS OF USE THEREOF” (Dow AgroSciences LLC, priority 2017, published 2023)

Test system: test plant species
Experiment: Post-emergent herbicidal activity test (greenhouse, foliar spray, visual growth reduction)
Type: in vivo
Settings: post-emergence, 336 h, ALOMY: blackgrass (Alopecurus myosuroides), 140 g ai/ha, 14 days after application, read-out: Visual Growth Reduction (%) 14 Days After Application, ALOMY
Description: Post-emergent Test: Seeds or nutlets of the desired test plant species were planted in Sun Gro Metro-Mix® 360 planting mixture, which typically has a pH of 6.0 to 6.8 and an organic matter content of about 30 percent, in plastic pots with a surface area of 64 square centimeters. In some aspects, to ensure good germination and healthy plants, a fungicide treatment and/or other chemical or physical treatment was applied. The plants were grown for 7-21 d in a greenhouse with an approximate 15 h photoperiod which was maintained at 23-29° C. during the day and 22-28° C. during the night. Nutrients and water were added on a regular basis and supplemental lighting was provided with overhead metal halide 1000-Watt lamps as necessary. Plants were used for testing when they reached the first or second true leaf stage. A weighed amount, determined by the highest rate to be tested, of each test compound was placed in a 25 mL glass vial and was dissolved in 4 mL of a 97:3 v/v mixture of acetone and DMSO to obtain concentrated stock solutions. […] The concentrated stock solutions obtained were diluted with 20 mL of an aqueous mixture containing acetone, water, isopropyl alcohol, DMSO, […] crop oil concentrate, and X-77 surfactant in a 48.5:39:10:1.5:1.0:0.02 v/v ratio to obtain spray solutions containing the application rate. Compound requirements are based upon a 12 mL application volume at a rate of 187 liters per hectare (L/ha). Formulated compounds were applied to the plant material with an overhead Mandel track sprayer equipped with […] nozzles calibrated to deliver 187 L/ha over an application area of 0.64 square meters at a spray height of 18 inches (43 cm) above the average plant canopy height. Control plants were sprayed in the same manner with the solvent blank. The treated plants and control plants were placed in a greenhouse as described above and watered by subirrigation to prevent wash-off of the test compounds. After 14 d, the condition of the test plants as compared with that of the nontreated and control plants was determined visually and scored on a scale of 0 to 100 percent where 0 corresponds to no injury and 100 corresponds to complete control. In the reporting of the results, Table A: Percent Growth Reduction Conversion Table was used.

Question: `COC(=O)c1nc(-c2ccc(C(F)(F)F)cc2Cl)cc(OC)c1Cl` [F39, Methyl 3-chloro-6-(trifluoromethyl) phenyl)-4-methoxypicolinate] was tested. Which pest or weed control at 140 g/ha did it give?
Answer: 0 to 29%

Question: How did the pest or weed control at 140 g/ha turn out when `COC(=O)c1nc(-c2ccc(C(F)(F)F)nc2F)ccc1Cl` [F167, Methyl 5-chloro-2′-fluoro-6′-(trifluoromethyl)-[2,3′-bipyridine]-6-carboxylate] was run?
Answer: 0 to 29%

Same assay, conditions: post-emergence, 336 h, AMARE: redroot pigweed (Amaranthus retroflexus), 140 g ai/ha, 14 days after application, read-out: Visual Growth Reduction (%) 14 Days After Application, AMARE

Question: For `COC(=O)c1nc(-c2ccc(C(F)(F)F)cc2Cl)cc(OC)c1Cl` [F39, Methyl 3-chloro-6-(trifluoromethyl) phenyl)-4-methoxypicolinate], which pest or weed control at 140 g/ha is on record?
Answer: 0 to 29%

Question: How did the pest or weed control at 140 g/ha turn out when `COC(=O)c1nc(-c2ccc(C(F)(F)F)nc2F)ccc1Cl` [F167, Methyl 5-chloro-2′-fluoro-6′-(trifluoromethyl)-[2,3′-bipyridine]-6-carboxylate] was run?
Answer: 60 to 74%

Same assay, conditions: post-emergence, 336 h, AVEFA: wild oat (Avena fatua), 140 g ai/ha, 14 days after application, read-out: Visual Growth Reduction (%) 14 Days After Application, AVEFA

Question: `COC(=O)c1nc(-c2ccc(C(F)(F)F)cc2Cl)cc(OC)c1Cl` [F39, Methyl 3-chloro-6-(trifluoromethyl) phenyl)-4-methoxypicolinate] was tested. Which pest or weed control at 140 g/ha did it give?
Answer: 0 to 29%

Question: How did the pest or weed control at 140 g/ha turn out when `COC(=O)c1nc(-c2ccc(C(F)(F)F)nc2F)ccc1Cl` [F167, Methyl 5-chloro-2′-fluoro-6′-(trifluoromethyl)-[2,3′-bipyridine]-6-carboxylate] was run?
Answer: 0 to 29%

Same assay, conditions: post-emergence, 336 h, CHEAL: lambsquarters (Chenopodium album), 140 g ai/ha, 14 days after application, read-out: Visual Growth Reduction (%) 14 Days After Application, CHEAL

Question: How did the pest or weed control at 140 g/ha turn out when `COC(=O)c1nc(-c2ccc(C(F)(F)F)cc2Cl)cc(OC)c1Cl` [F39, Methyl 3-chloro-6-(trifluoromethyl) phenyl)-4-methoxypicolinate] was run?
Answer: 0 to 29%

Question: For `COC(=O)c1nc(-c2ccc(C(F)(F)F)nc2F)ccc1Cl` [F167, Methyl 5-chloro-2′-fluoro-6′-(trifluoromethyl)-[2,3′-bipyridine]-6-carboxylate], which pest or weed control at 140 g/ha is on record?
Answer: 75 to 84%

Same assay, conditions: post-emergence, 336 h, CIRAR: canada thistle (Cirsium arvense), 140 g ai/ha, 14 days after application, read-out: Visual Growth Reduction (%) 14 Days After Application, CIRAR

Question: `COC(=O)c1nc(-c2ccc(C(F)(F)F)cc2Cl)cc(OC)c1Cl` [F39, Methyl 3-chloro-6-(trifluoromethyl) phenyl)-4-methoxypicolinate] was tested. Which pest or weed control at 140 g/ha did it give?
Answer: 0 to 29%

Question: Which pest or weed control at 140 g/ha does the source give for `COC(=O)c1nc(-c2ccc(C(F)(F)F)nc2F)ccc1Cl` [F167, Methyl 5-chloro-2′-fluoro-6′-(trifluoromethyl)-[2,3′-bipyridine]-6-carboxylate] here?
Answer: 0 to 29%

Same assay, conditions: post-emergence, 336 h, CYPES: yellow nutsedge (Cyperus esculentus), 140 g ai/ha, 14 days after application, read-out: Visual Growth Reduction (%) 14 Days After Application, CYPES

Question: With `COC(=O)c1nc(-c2ccc(C(F)(F)F)cc2Cl)cc(OC)c1Cl` [F39, Methyl 3-chloro-6-(trifluoromethyl) phenyl)-4-methoxypicolinate] as the compound, how does the pest or weed control at 140 g/ha read?
Answer: 0 to 29%

Question: `COC(=O)c1nc(-c2ccc(C(F)(F)F)nc2F)ccc1Cl` [F167, Methyl 5-chloro-2′-fluoro-6′-(trifluoromethyl)-[2,3′-bipyridine]-6-carboxylate] was tested. Which pest or weed control at 140 g/ha did it give?
Answer: 0 to 29%

Same assay, conditions: post-emergence, 336 h, DIGSA: crabgrass (Digitaria sanguinalis), 140 g ai/ha, 14 days after application, read-out: Visual Growth Reduction (%) 14 Days After Application, DIGSA

Question: How did the pest or weed control at 140 g/ha turn out when `COC(=O)c1nc(-c2ccc(C(F)(F)F)cc2Cl)cc(OC)c1Cl` [F39, Methyl 3-chloro-6-(trifluoromethyl) phenyl)-4-methoxypicolinate] was run?
Answer: 0 to 29%

Same assay, conditions: post-emergence, 336 h, ECHCG: barnyardgrass (Echinochloa crus-galli), 140 g ai/ha, 14 days after application, read-out: Visual Growth Reduction (%) 14 Days After Application, ECHCG

Question: `COC(=O)c1nc(-c2ccc(C(F)(F)F)cc2Cl)cc(OC)c1Cl` [F39, Methyl 3-chloro-6-(trifluoromethyl) phenyl)-4-methoxypicolinate] was tested. Which pest or weed control at 140 g/ha did it give?
Answer: 0 to 29%

Question: How did the pest or weed control at 140 g/ha turn out when `COC(=O)c1nc(-c2ccc(C(F)(F)F)nc2F)ccc1Cl` [F167, Methyl 5-chloro-2′-fluoro-6′-(trifluoromethyl)-[2,3′-bipyridine]-6-carboxylate] was run?
Answer: 0 to 29%

Same assay, conditions: post-emergence, 336 h, IPOHE: ivy-leaf morning glory (Ipomoea hederacea), 140 g ai/ha, 14 days after application, read-out: Visual Growth Reduction (%) 14 Days After Application, IPOHE

Question: `COC(=O)c1nc(-c2ccc(C(F)(F)F)cc2Cl)cc(OC)c1Cl` [F39, Methyl 3-chloro-6-(trifluoromethyl) phenyl)-4-methoxypicolinate] was tested. Which pest or weed control at 140 g/ha did it give?
Answer: 0 to 29%

Question: Which pest or weed control at 140 g/ha does the source give for `COC(=O)c1nc(-c2ccc(C(F)(F)F)nc2F)ccc1Cl` [F167, Methyl 5-chloro-2′-fluoro-6′-(trifluoromethyl)-[2,3′-bipyridine]-6-carboxylate] here?
Answer: 60 to 74%

Same assay, conditions: post-emergence, 336 h, KCHSC: kochia (Bassia scoparia), 140 g ai/ha, 14 days after application, read-out: Visual Growth Reduction (%) 14 Days After Application, KCHSC

Question: Which pest or weed control at 140 g/ha does the source give for `COC(=O)c1nc(-c2ccc(C(F)(F)F)cc2Cl)cc(OC)c1Cl` [F39, Methyl 3-chloro-6-(trifluoromethyl) phenyl)-4-methoxypicolinate] here?
Answer: 0 to 29%

Question: How did the pest or weed control at 140 g/ha turn out when `COC(=O)c1nc(-c2ccc(C(F)(F)F)nc2F)ccc1Cl` [F167, Methyl 5-chloro-2′-fluoro-6′-(trifluoromethyl)-[2,3′-bipyridine]-6-carboxylate] was run?
Answer: 30 to 44%

Same assay, conditions: post-emergence, 336 h, ORYSA: rice (Oryza sativa), 140 g ai/ha, 14 days after application, read-out: Visual Growth Reduction (%) 14 Days After Application, ORYSA

Question: For `COC(=O)c1nc(-c2ccc(C(F)(F)F)cc2Cl)cc(OC)c1Cl` [F39, Methyl 3-chloro-6-(trifluoromethyl) phenyl)-4-methoxypicolinate], which pest or weed control at 140 g/ha is on record?
Answer: 0 to 29%

Question: `COC(=O)c1nc(-c2ccc(C(F)(F)F)nc2F)ccc1Cl` [F167, Methyl 5-chloro-2′-fluoro-6′-(trifluoromethyl)-[2,3′-bipyridine]-6-carboxylate] was tested. Which pest or weed control at 140 g/ha did it give?
Answer: 0 to 29%

Same assay, conditions: post-emergence, 336 h, SETFA: giant foxtail (Setaria faberi), 140 g ai/ha, 14 days after application, read-out: Visual Growth Reduction (%) 14 Days After Application, SETFA

Question: `COC(=O)c1nc(-c2ccc(C(F)(F)F)cc2Cl)cc(OC)c1Cl` [F39, Methyl 3-chloro-6-(trifluoromethyl) phenyl)-4-methoxypicolinate] was tested. Which pest or weed control at 140 g/ha did it give?
Answer: 0 to 29%

Question: `COC(=O)c1nc(-c2ccc(C(F)(F)F)nc2F)ccc1Cl` [F167, Methyl 5-chloro-2′-fluoro-6′-(trifluoromethyl)-[2,3′-bipyridine]-6-carboxylate] was tested. Which pest or weed control at 140 g/ha did it give?
Answer: 60 to 74%

Same assay, conditions: post-emergence, 336 h, SORVU: grain sorghum (Sorghum vulgare), 140 g ai/ha, 14 days after application, read-out: Visual Growth Reduction (%) 14 Days After Application, SORVU

Question: How did the pest or weed control at 140 g/ha turn out when `COC(=O)c1nc(-c2ccc(C(F)(F)F)cc2Cl)cc(OC)c1Cl` [F39, Methyl 3-chloro-6-(trifluoromethyl) phenyl)-4-methoxypicolinate] was run?
Answer: 30 to 44%

Question: How did the pest or weed control at 140 g/ha turn out when `COC(=O)c1nc(-c2ccc(C(F)(F)F)nc2F)ccc1Cl` [F167, Methyl 5-chloro-2′-fluoro-6′-(trifluoromethyl)-[2,3′-bipyridine]-6-carboxylate] was run?
Answer: 75 to 84%

Same assay, conditions: post-emergence, 336 h, STEME: common chickweed (Stellaria media), 140 g ai/ha, 14 days after application, read-out: Visual Growth Reduction (%) 14 Days After Application, STEME

Question: How did the pest or weed control at 140 g/ha turn out when `COC(=O)c1nc(-c2ccc(C(F)(F)F)cc2Cl)cc(OC)c1Cl` [F39, Methyl 3-chloro-6-(trifluoromethyl) phenyl)-4-methoxypicolinate] was run?
Answer: 0 to 29%

Question: `COC(=O)c1nc(-c2ccc(C(F)(F)F)nc2F)ccc1Cl` [F167, Methyl 5-chloro-2′-fluoro-6′-(trifluoromethyl)-[2,3′-bipyridine]-6-carboxylate] was tested. Which pest or weed control at 140 g/ha did it give?
Answer: 0 to 29%

Same assay, conditions: post-emergence, 336 h, TRZAS: wheat, spring (Triticum aestivum), 140 g ai/ha, 14 days after application, read-out: Visual Growth Reduction (%) 14 Days After Application, TRZAS

Question: How did the pest or weed control at 140 g/ha turn out when `COC(=O)c1nc(-c2ccc(C(F)(F)F)cc2Cl)cc(OC)c1Cl` [F39, Methyl 3-chloro-6-(trifluoromethyl) phenyl)-4-methoxypicolinate] was run?
Answer: 0 to 29%

Question: Which pest or weed control at 140 g/ha does the source give for `COC(=O)c1nc(-c2ccc(C(F)(F)F)nc2F)ccc1Cl` [F167, Methyl 5-chloro-2′-fluoro-6′-(trifluoromethyl)-[2,3′-bipyridine]-6-carboxylate] here?
Answer: 0 to 29%
